Earlier results, collected in patent US20070184040A1, “Compositions for delivery of coenzyme Q10” (priority 2006, published 2007).

solubility in most hydrophilic solvents, such as water: very poorly soluble
SMILES: COC1=C(OC)C(=O)C(C/C=C(\C)CC/C=C(\C)CC/C=C(\C)CC/C=C(\C)CC/C=C(\C)CC/C=C(\C)CC/C=C(\C)CC/C=C(\C)CC/C=C(\C)CCC=C(C)C)=C(C)C1=O [CoQ10, Coenzyme Q10]
